System: green peach aphid (Myzus persicae)
Assay: Myzus test (spray treatment) on Chinese cabbage leaf disks
Assay type: in vivo
Settings: foliar, 144 h, read-out: Mortality in % After 6 Days
Procedure: A suitable preparation of active ingredient was prepared by mixing one part by weight of active ingredient with the stated amounts of solvent and emulsifier and diluting the concentrate with emulsifier-containing water to the desired concentration as described below. A suitable suspension of biological agent was prepared by dissolving the cells, spores or viruses in emulsifier-containing water at the desired concentration.
Chinese cabbage (Brassica pekinensis) leaf disks infested by all stages of the green peach aphid (Myzus persicae) were sprayed with an active ingredient and/or biological agent preparation in the desired concentration.
After the desired time, the effect in % was ascertained. Here, 100% means that all of the aphids had been killed; 0% means that no aphids had been killed. The mortality figures determined are used for calculation according to the Colby formula (cf. Colby, S. R., “Calculating Synergistic and Antagonistic Responses of Herbicide Combinations”, Weeds 1967, 15, 20-22).

For O=C(NCCc1ncc(C(F)(F)F)cc1Cl)c1ccccc1C(F)(F)F [Fluopyram, fluopyram], the mortality at 500 g/ha (500 g ai/ha) was 0% and the mortality at 1000 g/ha (1000 g ai/ha) was 0%.

Source: patent US20180064110A1, “COMBINATIONS OF FUNGICIDALLY ACTIVE YEAST AND FUNGICIDES” (Bayer CropScience AG, priority 2009, published 2018)
